Where “and” joins values, the source holds several entries; their conditions need not be identical. Equal values may be shown once.
Columns and labels:
[1] = system: supercoiled pBR322 plasmid DNA; test: Ability to break DNA double strand (agarose gel electrophoresis); assay type: biochemical; conditions: 100 μM, 37 °C, 16 h
Experimental: Evaluation of the ability to break DNA double strand
by different species of Pt compounds. (a) Agarose gel electrophoresis of supercoiled
pBR322 plasmid DNA (10 ng/μL) after incubating with indicated conditions.
represents the linear DNA marker ladder (500-12000 bp); Lane i: DNA; Lane ii: DNA
+ GSH (2 mM); Lane iii: DNA + CDDP (100 μM); Lane iv: DNA + CDDP (100 μM)
+ GSH (2 mM); Lane v: DNA + P-CyPt (100 μM); Lane vi: DNA + P-CyPt (100 μM)
+ GSH (2 mM), Lane vii: DNA +P-CyPt (100 μM) + ALP (500 U/L), Lane viii: DNA
+P-CyPt (100 μM) + ALP (500 U/L) +GSH (2 mM); (b) Agarose gel electrophoresis
of supercoiled pBR322 plasmid DNA (20 ng/μL) after incubating with varying
concentrations of P-CyPt (0, 1, 2, 5, 10, 20, 50 and 100 μM) respectively) plus ALP
(500 U/L), followed by incubation with GSH (2 mM) in Tris buffer at 37 °C for 16 h.
One representative experiment out of two is shown.

HeLa cells = test: Flow cytometry analysis of HeLa cell death (Annexin V-FITC/PI); assay type: cell-based, human; conditions: 20 μM 2 h, then blank medium 48 h
Experimental: Flow cytometric analysis of HeLa cell death. (a) Gating strategy applied for flow cytometric analysis. (b) Representative flow cytometric analysis of HeLa cells by Annexin V-FITC/PI staining. HeLa cells were treated with PBS, CDDP, PtIVNPs or P-CyPt (20 μM) for 2 h, washed with cold PBS for three times, and then continued incubation in refresh blank DMEM medium for another 48 h. The cells were then stained with the Annexin V-FITC/PI kit, and analyzed by flow cytometry. One representative experiment out of two is shown.
Flow cytometry analysis of HeLa cell death. Approximately 2×10^5 cells/well HeLa cells in 2 mL DMEM medium were seeded onto 6-well plates and allowed to grow overnight. The medium was replaced with 1 mL of fresh medium containing P-CyPt (20 μM), PtIVNPs (20 μM) and CDDP (20 μM), respectively. After 2 h incubation, medium was removed and cells were washed with PBS for three times. Then, cells were incubated with fresh medium for another 48 h to induce different levels of apoptosis.
After gentle washing with PBS (×1), the cells were detached from the plates with trypsin (500 μL per well), and the cell pellets were collected after centrifugation at 1000 161× g at 4 °C for 4 min. […] All assays were performed according to the manufacturer instructions, and the cell population was analyzed by annexin V-FITC and PI channels. […]

[2] = Urine and faeces analysis by HPLC (mCy-containing compounds); assay type: in vivo, mice; design: mCy in urine: unit not given beside the values
[3] = Time period 0-2 h, individual mice, matrix and injected agent not given
[4] = Time period 0-2 h, mean of 3 mice, matrix and injected agent not given
[5] = Time period 2-4 h, individual mice
[6] = Time period 2-4 h, mean of 3 mice
[7] = Time period 4-8 h, individual mice
[8] = Time period 4-8 h, mean of 3 mice
[9] = Time period 8-12 h, mean of 3 mice
[10] = after i.v. preformed PtIVNPs, 2-4 h
[11] = after i.v. preformed PtIVNPs, 4-8 h
[12] = after i.v. preformed PtIVNPs, 8-12 h

With `[NH2][Pt]([NH2])([Cl])[Cl]` [CDDP, cisplatin] the “effect on supercoiled pBR322 DNA” value ([1]; plus GSH (2 mM)) was “prevent its binding with the DNA double strand”, the “effect on supercoiled pBR322 DNA” value ([1]; without GSH) was “cannot obviously relax or break” and the apoptosis population (HeLa cells) was ~ 5.20%.

For `CC1(C)C(/C=C/C2=C3Oc4cc(O)c(Cl)cc4C=C3CCC2)=[N+](CCCNC(=O)[C@@H](Cc2ccccc2)NC(=O)[C@@H](Cc2ccccc2)NC(=O)CCC(=O)[O][Pt]([NH2])([NH2])([OH])([Cl])[Cl])c2ccccc21` [CyPt], the “Compound found in excreta (%), Supplementary Table S5” value [2, 3] was 1.0169% and 1.15% and 0.9269%, the “Compound found in excreta (%), Supplementary Table S6” value [2, 3] was 0.0316% and 0.04969% and 0.02632% and the “Compound found in excreta (%), Supplementary Table S7” value [2, 3] was 0%. The “Compound found in excreta (%), Supplementary Table S8” value [2, 3] was 0.5086% and 0.616% and 0.02021%, the “Compound found in excreta (%), Supplementary Table S5” value [2, 4] was 1.03% and the “Compound found in excreta (%), Supplementary Table S6” value [2, 4] was 0.0359%. For the same compound, the “Compound found in excreta (%), Supplementary Table S7” value [2, 4] was 0.00%, the “Compound found in excreta (%), Supplementary Table S8” value [2, 4] was 0.38% and the “Compound found in excreta (%), Supplementary Table S5” value [2, 5] was 0.5615% and 0.6076% and 0.4976%. The “Compound found in excreta (%), Supplementary Table S6” value [2, 5] was 0.965% and 1.15% and 0.7153%, the “Compound found in excreta (%), Supplementary Table S7” value [2, 5] was 2.308% and 2.538% and 1.332% and the “Compound found in excreta (%), Supplementary Table S8” value [2, 5] was 12.9072% and 11.8054% and 9.624%. For the same compound, the “Compound found in excreta (%), Supplementary Table S5” value [2, 6] was 0.56%, the “Compound found in excreta (%), Supplementary Table S6” value [2, 6] was 0.94% and the “Compound found in excreta (%), Supplementary Table S7” value [2, 6] was 2.06%. For the same compound, the “Compound found in excreta (%), Supplementary Table S8” value [2, 6] was 11.45%, the “Compound found in excreta (%), Supplementary Table S5” value [2, 7] was 0.2738% and 0.2968% and 0.2509% and the “Compound found in excreta (%), Supplementary Table S6” value [2, 7] was 10.4273% and 10.6083% and 7.985%. For the same compound, the “Compound found in excreta (%), Supplementary Table S7” value [2, 7] was 3.373% and 3.391% and 1.995%, the “Compound found in excreta (%), Supplementary Table S8” value [2, 7] was 11.1798% and 12.4002% and 9.36% and the “Compound found in excreta (%), Supplementary Table S5” value [2, 8] was 0.27%. The “Compound found in excreta (%), Supplementary Table S6” value [2, 8] was 9.67%, the “Compound found in excreta (%), Supplementary Table S7” value [2, 8] was 2.92% and the “Compound found in excreta (%), Supplementary Table S8” value [2, 8] was 10.98%. For the same compound, the “Compound found in excreta (%), Supplementary Table S8” value ([2]; Time period 8-12 h, individual mice) was 1.288% and 2.706% and 1.988%, the “Compound found in excreta (%), Supplementary Table S5” value [2, 9] was 0.00% and the “Compound found in excreta (%), Supplementary Table S6” value [2, 9] was 0.76%. For the same compound, the “Compound found in excreta (%), Supplementary Table S7” value [2, 9] was 1.17%, the “Compound found in excreta (%), Supplementary Table S8” value [2, 9] was 1.99% and the “percentage excreted to the faeces (HPLC)” value ([2]; after i.v. P-CyPt, 2-4 h) was 0.94 ± 0.22%. The “percentage excreted to the urine (HPLC)” value ([2]; after i.v. P-CyPt, 2-4 h) was 0.56 ± 0.055%, the “percentage excreted to the faeces (HPLC)” value ([2]; after i.v. P-CyPt, 4-8 h) was 9.67 ± 1.46% and ~ 9.7% and the “percentage excreted to the urine (HPLC)” value ([2]; after i.v. P-CyPt, 4-8 h) was 0.27 ± 0.23%. The “percentage excreted to the faeces (HPLC)” value ([2]; after i.v. P-CyPt, 8-12 h) was 0.76 ± 0.14%, the “percentage excreted to the urine (HPLC)” value ([2]; after i.v. P-CyPt, 8-12 h) was 0% and the “percentage excreted to the faeces (HPLC)” value [2, 10] was 11.44 ± 1.67%. For the same compound, the “percentage excreted to the urine (HPLC)” value [2, 10] was 2.06 ± 0.64%, the “percentage excreted to the faeces (HPLC)” value [2, 11] was 10.98 ± 1.53% and the “percentage excreted to the urine (HPLC)” value [2, 11] was 2.92 ± 0.80%. The “percentage excreted to the faeces (HPLC)” value [2, 12] was 1.99 ± 0.71% and the “percentage excreted to the urine (HPLC)” value [2, 12] was 1.16 ± 0.43%.

With `CC1(C)C(/C=C/C2=C3Oc4cc(OP(=O)(O)O)c(Cl)cc4C=C3CCC2)=[N+](CCCNC(=O)[C@@H](Cc2ccccc2)NC(=O)[C@@H](Cc2ccccc2)NC(=O)CCC(=O)[O][Pt]([NH2])([NH2])([OH])([Cl])[Cl])c2ccccc21` [P-CyPt] the mCy in urine ([2]; Fig.6e, 0-2 h, mean of 3 mice) was 12.76, the mCy in urine ([2]; Fig.6e, 0-2 h, single mice) was 12.5823 and 14.2325 and 11.4685 and the mCy in urine ([2]; Fig.6e, 2-4 h, mean of 3 mice) was 12.43. For the same compound, the mCy in urine ([2]; Fig.6e, 2-4 h, single mice) was 12.5615 and 13.5939 and 11.1324, the mCy in urine ([2]; Fig.6e, 4-8 h, mean of 3 mice) was 12.56 and the mCy in urine ([2]; Fig.6e, 4-8 h, single mice) was 12.5588 and 13.6118 and 11.5060. For the same compound, the mCy in urine ([2]; Fig.6e, 8-12 h, mean of 3 mice) was 7.02, the mCy in urine ([2]; Fig.6e, 8-12 h, single mice) was 7.0621 and 8.1416 and 5.8422 and the mCy in urine ([2]; Fig.6f, 0-2 h, mean of 3 mice) was 0.53. The mCy in urine ([2]; Fig.6f, 0-2 h, single mice) was 0.4663 and 0.7332 and 0.3884, the mCy in urine ([2]; Fig.6f, 2-4 h, mean of 3 mice) was 6.03 and the mCy in urine ([2]; Fig.6f, 2-4 h, single mice) was 6.1714 and 7.3564 and 4.5750. The mCy in urine ([2]; Fig.6f, 4-8 h, mean of 3 mice) was 21.29, the mCy in urine ([2]; Fig.6f, 4-8 h, single mice) was 22.9482 and 23.3466 and 17.5729 and the mCy in urine ([2]; Fig.6f, 8-12 h, mean of 3 mice) was 9.19. The mCy in urine ([2]; Fig.6f, 8-12 h, single mice) was 7.4602 and 10.7840 and 9.3353, the “Compound found in excreta (%), Supplementary Table S5” value [2, 3] was 11.1327% and 12.5928% and 10.1473% and the “Compound found in excreta (%), Supplementary Table S6” value [2, 3] was 0.3965% and 0.6235% and 0.3303%. The “Compound found in excreta (%), Supplementary Table S5” value [2, 4] was 11.29%, the “Compound found in excreta (%), Supplementary Table S6” value [2, 4] was 0.45% and the “Compound found in excreta (%), Supplementary Table S5” value [2, 5] was 5.17% and 5.5947% and 4.582%. For the same compound, the “Compound found in excreta (%), Supplementary Table S6” value [2, 5] was 4.641% and 5.532% and 3.44%, the “Compound found in excreta (%), Supplementary Table S5” value [2, 6] was 5.12% and the “Compound found in excreta (%), Supplementary Table S6” value [2, 6] was 4.54%. The “Compound found in excreta (%), Supplementary Table S5” value [2, 7] was 4.333% and 4.696% and 3.97%, the “Compound found in excreta (%), Supplementary Table S6” value [2, 7] was 0.5705% and 0.5804% and 0.4369% and the “Compound found in excreta (%), Supplementary Table S5” value [2, 8] was 4.33%. For the same compound, the “Compound found in excreta (%), Supplementary Table S6” value [2, 8] was 0.53%, the “Compound found in excreta (%), Supplementary Table S5” value [2, 9] was 1.41% and the “Compound found in excreta (%), Supplementary Table S6” value [2, 9] was 0.06%. The “percentage excreted to the faeces (HPLC)” value ([2]; after i.v. P-CyPt, 2-4 h) was 4.54± 1.05% and ~ 4.5%, the “percentage excreted to the urine (HPLC)” value ([2]; after i.v. P-CyPt, 2-4 h) was 5.12 ± 0.51% and the “percentage excreted to the faeces (HPLC)” value ([2]; after i.v. P-CyPt, 4-8 h) was 0.53 ± 0.080%. The “percentage excreted to the urine (HPLC)” value ([2]; after i.v. P-CyPt, 4-8 h) was 4.33 ± 0.055%, the “percentage excreted to the faeces (HPLC)” value ([2]; after i.v. P-CyPt, 8-12 h) was 0.059 ± 0.011% and the “percentage excreted to the urine (HPLC)” value ([2]; after i.v. P-CyPt, 8-12 h) was 1.41 ± 0.23%. For the same compound, the “mCy-containing compounds excreted via hepatobiliary system” value ([2]; over 12 h, of injected dose) was ~ 37.0%, the “mCy-containing compounds excreted via renal system” value ([2]; over 12 h, of injected dose) was ~ 44.8% and the “effect on supercoiled pBR322 DNA” value ([1]; plus GSH (2 mM)) was “can significantly relax the supercoiled DNA”. For the same compound, the “effect on supercoiled pBR322 DNA” value ([1]; without GSH) was “cannot bind to and break the DNA double strand” and the apoptosis population (HeLa cells) was ~ 64.5%.
